Several values for one entry are separate records, joined by “and”; a condition that tells them apart may be missing. Equal entries are not always repeated.
How the values were obtained:
membrane-bound rMpAOX [1] = molecular target: T1, membrane-bound rMpAOX (Moniliophthora perniciosa, UniProt A8QJP8); test: Dose-response assay of inhibitors with membrane-bound, GMP-activated rMpAOX (NADH oxidation); assay type: biochemical; settings: for Fractional velocity, % / activity at 0.25 µM / activity at 0.025 µM / activity at 0.0025 µM / activity at 0.00025 µM / activity at 25 pM: log[I]; for activity at 0.25 µM / activity at 0.025 µM / activity at 0.0025 µM / activity at 0.00025 µM / activity at 25 pM: read-out: Fractional velocity, %; for IC50: membrane-bound, GMP-activated rMpAOX, read-out: IC50
Protocol: (§1) E. coli membrane preparation was performed as described with minor modifications. […] The cells were disrupted using two passes at […] through a pre-cooled Constant cell disruption system (Constant Systems Ltd). The lysate was centrifuged for 15 min at 16,000 rcf, and the pelleted unbroken cells and large cell debris were discarded. The supernatant was centrifuged for 90 min at 200,000 rcf to collect the fragmented membranes.
(§2) Respiration rates were recorded before and after the addition of putative AOX activators, such as 5′-ADP, 5′-AMP, 5′-GDP, 5′-GMP, glyoxylate, oxaloacetate, pyruvate or succinate (1 mM each unless stated otherwise). […] Data were acquired with the Multiskan FC Microplate Photometer (ThermoFisher). […] Absorbance readings were taken periodically and a blank reactions (substrate without enzyme) were included in every assay and were used to determine and subtract the autoxidation rate (background). Proteoliposomes were assayed as described for the E. coli membrane fraction except that no KCN was included and 0.5 µL of the prep (~50 ng rMpAOX) were added into the reaction. When tested, inhibitors were preincubated with the enzyme in reaction buffer for 2–5 min before starting the reaction by the addition of substrate. The path length (i.e., the height of the reaction medium inside the well) was calculated based on the reaction volume and the well cross-section area informed by the supplier. GraphPad Prism 7.0 (GraphPad Software Inc.) was used for function fitting.

membrane-bound rMpAOX [2] = molecular target: T1, membrane-bound rMpAOX; test: Membrane-bound rMpAOX activity with putative activators (O2 uptake, oxygraph; dose-response); assay type: biochemical; settings: for Increase of membrane-bound rMpAOX oxygen uptake: 1 mM activator; for Fold-change in membrane-bound rMpAOX O2 uptake: 1 mM each; for EC50: membrane-bound rMpAOX, 4-parameter sigmoid fit, read-out: EC50 of rMpAOX activation;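 as to Fractional velocity, %: 100% is the maximal rate reached in the activator titration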
Protocol: as §1, §2

[3] = single independent measurements (Fig1a)

T1 sequence (A8QJP8 entry or part of it): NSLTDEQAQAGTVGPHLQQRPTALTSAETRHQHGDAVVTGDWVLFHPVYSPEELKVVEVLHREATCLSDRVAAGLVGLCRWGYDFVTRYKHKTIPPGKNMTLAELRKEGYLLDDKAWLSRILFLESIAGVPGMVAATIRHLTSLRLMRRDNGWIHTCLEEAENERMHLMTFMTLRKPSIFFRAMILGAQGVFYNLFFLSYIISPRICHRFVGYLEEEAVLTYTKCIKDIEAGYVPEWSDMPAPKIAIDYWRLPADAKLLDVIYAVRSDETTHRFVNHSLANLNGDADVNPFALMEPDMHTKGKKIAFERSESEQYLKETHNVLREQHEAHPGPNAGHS

## CCCCCCCCOC(=O)c1cc(O)c(O)c(O)c1 [OG, octyl gallate]
membrane-bound rMpAOX [1]; M -4.60206 (Fig2b), 25 µM
  Fractional velocity, %: 3.004% and 2.353% and 7.7435%
membrane-bound rMpAOX [1]; M -5.60206 (Fig2b), 2.5 µM
  Fractional velocity, %: 37.6641% and 53.0018% and 32.2387%
membrane-bound rMpAOX [1]; M -6.60206 (Fig2b), 0.25 µM
  Fractional velocity, %: 91.8565% and 76.0465%
membrane-bound rMpAOX [1]; M -6.60206 (Fig2b)
  activity at 0.25 µM: 92.7%
membrane-bound rMpAOX [1]; M -7.60206 (Fig2b), 0.025 µM
  Fractional velocity, %: 96.9123% and 87.3681%
membrane-bound rMpAOX [1]; M -7.60206 (Fig2b)
  activity at 0.025 µM: 99%
membrane-bound rMpAOX [1]; M -8.60206 (Fig2b), 0.0025 µM
  Fractional velocity, %: 100.043% and 88.594%
membrane-bound rMpAOX [1]; M -8.60206 (Fig2b)
  activity at 0.0025 µM: 98.8%
membrane-bound rMpAOX [1]; M -9.60206 (Fig2b), 0.00025 µM
  Fractional velocity, %: 96.5387% and 94.2199%
membrane-bound rMpAOX [1]; M -9.60206 (Fig2b)
  activity at 0.00025 µM: 98%
membrane-bound rMpAOX [1]; M -10.6021 (Fig2b), 25 pM
  Fractional velocity, %: 93.2034% and 90.1921%
membrane-bound rMpAOX [1]; M -10.6021 (Fig2b)
  activity at 25 pM: 93.9%
membrane-bound rMpAOX [1]
  IC50: 1.67 µM

## Nc1ncnc2c1ncn2[C@@H]1O[C@H](COP(=O)(O)O)[C@@H](O)[C@H]1O [AMP, 5′-AMP]
membrane-bound rMpAOX [2]
  Increase of membrane-bound rMpAOX oxygen uptake: 8.1 times
  EC50: 918 µM and 910 µM
membrane-bound rMpAOX [2]; [3]
  Fold-change in membrane-bound rMpAOX O2 uptake: 7.569 and 7.49 and 9.2495
membrane-bound rMpAOX [2]; [activator] 0.025 mM (Fig1b)
  Fractional velocity, %: 22.2% and 18.4%
membrane-bound rMpAOX [2]; [activator] 0.075 mM (Fig1b)
  Fractional velocity, %: 33.8% and 27.9%
membrane-bound rMpAOX [2]; [activator] 0.175 mM (Fig1b)
  Fractional velocity, %: 53.8% and 45.3%
membrane-bound rMpAOX [2]; [activator] 0.375 mM (Fig1b)
  Fractional velocity, %: 81.6% and 66.1%
membrane-bound rMpAOX [2]; [activator] 0.625 mM (Fig1b)
  Fractional velocity, %: 102% and 87.9%
membrane-bound rMpAOX [2]; [activator] 1.125 mM (Fig1b)
  Fractional velocity, %: 134.8% and 120.3%
membrane-bound rMpAOX [2]; [activator] 2.125 mM (Fig1b)
  Fractional velocity, %: 172.4% and 157.6%
membrane-bound rMpAOX [2]; [activator] 4.125 mM (Fig1b)
  Fractional velocity, %: 201.8% and 188.2%
membrane-bound rMpAOX [2]; [activator] 6.625 mM (Fig1b)
  Fractional velocity, %: 199.8%

## Nc1ncnc2c1ncn2[C@@H]1O[C@H](COP(=O)(O)OP(=O)(O)O)[C@@H](O)[C@H]1O [ADP, 5′-ADP]
membrane-bound rMpAOX [2]
  Increase of membrane-bound rMpAOX oxygen uptake: 4.5 times
  EC50: ~6500 µM
membrane-bound rMpAOX [2]; [3]
  Fold-change in membrane-bound rMpAOX O2 uptake: 5 and 3.654 and 4.737
membrane-bound rMpAOX [2]; [activator] 0.025 mM (Fig1b)
  Fractional velocity, %: 29.9% and 27.8%
membrane-bound rMpAOX [2]; [activator] 0.075 mM (Fig1b)
  Fractional velocity, %: 31.9% and 29.4%
membrane-bound rMpAOX [2]; [activator] 0.175 mM (Fig1b)
  Fractional velocity, %: 33.7% and 32.1%
membrane-bound rMpAOX [2]; [activator] 0.375 mM (Fig1b)
  Fractional velocity, %: 36.2% and 33.2%
membrane-bound rMpAOX [2]; [activator] 0.625 mM (Fig1b)
  Fractional velocity, %: 46.5% and 35.2%
membrane-bound rMpAOX [2]; [activator] 1.625 mM (Fig1b)
  Fractional velocity, %: 64.4% and 58.2%
membrane-bound rMpAOX [2]; [activator] 3.625 mM (Fig1b)
  Fractional velocity, %: 97.7% and 79.7%
membrane-bound rMpAOX [2]; [activator] 6.125 mM (Fig1b)
  Fractional velocity, %: 128.8% and 99.5%

## O=C(O)CC(=O)C(=O)O [OXAL, oxaloacetate]
membrane-bound rMpAOX [2]; single independent measurements (Fig1a), 1000 µM
  Fold-change in membrane-bound rMpAOX O2 uptake: 0.932 and 1.186
membrane-bound rMpAOX [2]; pH 7.5, 1 mM each, single independent measurements (Fig1a), read-out: Fold-change in membrane-bound rMpAOX O2 uptake
  fold induction at 1000 µM: 0.847

## O=CC(=O)O [GLYOX, glyoxylate]
membrane-bound rMpAOX [2]; [3]
  Fold-change in membrane-bound rMpAOX O2 uptake: 0.6271 and 0.9309 and 0.7633

## O=C(O)CCC(=O)O [SUCC, succinate]
membrane-bound rMpAOX [2]; [3]
  Fold-change in membrane-bound rMpAOX O2 uptake: 1.198 and 0.7995 and 1.017

## CC(C)=CCc1c(O)c(Cl)c(C)c(C=O)c1O [CD, colletochlorin D]
membrane-bound rMpAOX [1]; M -5.60206 (Fig2b), 2.5 µM
  Fractional velocity, %: 6.725% and 4.7683% and 12.1201%
membrane-bound rMpAOX [1]; M -6.60206 (Fig2b), 0.25 µM
  Fractional velocity, %: 26.8171% and 38.1389%
membrane-bound rMpAOX [1]; M -6.60206 (Fig2b)
  activity at 0.25 µM: 28%
membrane-bound rMpAOX [1]; M -7.60206 (Fig2b), 0.025 µM
  Fractional velocity, %: 83.3186% and 82.5195%
membrane-bound rMpAOX [1]; M -7.60206 (Fig2b)
  activity at 0.025 µM: 81.9%
membrane-bound rMpAOX [1]; M -8.60206 (Fig2b), 0.0025 µM
  Fractional velocity, %: 98.2807% and 91.2399%
membrane-bound rMpAOX [1]; M -8.60206 (Fig2b)
  activity at 0.0025 µM: 95.8%
membrane-bound rMpAOX [1]; M -9.60206 (Fig2b), 0.00025 µM
  Fractional velocity, %: 94.0253% and 92.2465%
membrane-bound rMpAOX [1]; M -9.60206 (Fig2b)
  activity at 0.00025 µM: 98%
membrane-bound rMpAOX [1]; M -10.6021 (Fig2b), 25 pM
  Fractional velocity, %: 93.9344% and 89.9529%
membrane-bound rMpAOX [1]; M -10.6021 (Fig2b)
  activity at 25 pM: 94.5%
membrane-bound rMpAOX [1]
  IC50: 0.115 µM

Source: paper PMC7248098, “Biochemical characterization and inhibition of the alternative oxidase enzyme from the fungal phytopathogen Moniliophthora perniciosa” (Communications Biology, 2020)
